In patent US7414131B2, “Bicycloheteroarylamine compounds as ion channel ligands and uses thereof” (Renovis, Inc., priority 2003, dated 2008):
Structures can show the parent of a compound that is named as a salt.

Key:
Sprague-Dawley male rats = assay: Carrageenan-induced thermal hyperalgesia, latency of paw withdrawal; type: in vivo; conditions: rat, carrageenan hindpaw; 30 mg/kg dosed one hour after carrageenan; tested two hours later
Experimental: Sprague-Dawley male rats obtained from Charles River, San Diego, Calif. were purchased at 150-175 g, and held for at least one week before testing. Pain was induced by injecting 100 μl of 2% carrageenan in 0.9% saline sub-Q into the right ventral hindpaw while the animals were under isofluorane anesthesia. Animals were then dosed one hour after with a concentration of 30 mg/kg of Compound 1. Two hours later, after acclimatizing in testing chambers for 20-30 minutes, animals were tested on both hindpaws for latency of paw withdrawal using a thermal testing apparatus. 2-3 trials were conducted with 10 minutes between trials. […] The figure depicts the time in seconds until animals withdraw from thermal stimulation at baseline and two hours after administration of delivery vehicle, control compound, and the dose of 30 mg/kg of Compound 1.

hVR1 = hVR1 (Homo sapiens, UniProt Q8NER1); assay: High throughput calcium imaging assay (Fura2, Flex Station) of VR1 antagonists; type: cell-based; conditions: HEK 293 cells expressing hVR1; for % Inhibition @ 1 μM: 1 μM compound, inhibition of calcium ion influx; for IC50: concentrations 10 nM to 3.3 μM
hVR1, sequence (Q8NER1 whole entry): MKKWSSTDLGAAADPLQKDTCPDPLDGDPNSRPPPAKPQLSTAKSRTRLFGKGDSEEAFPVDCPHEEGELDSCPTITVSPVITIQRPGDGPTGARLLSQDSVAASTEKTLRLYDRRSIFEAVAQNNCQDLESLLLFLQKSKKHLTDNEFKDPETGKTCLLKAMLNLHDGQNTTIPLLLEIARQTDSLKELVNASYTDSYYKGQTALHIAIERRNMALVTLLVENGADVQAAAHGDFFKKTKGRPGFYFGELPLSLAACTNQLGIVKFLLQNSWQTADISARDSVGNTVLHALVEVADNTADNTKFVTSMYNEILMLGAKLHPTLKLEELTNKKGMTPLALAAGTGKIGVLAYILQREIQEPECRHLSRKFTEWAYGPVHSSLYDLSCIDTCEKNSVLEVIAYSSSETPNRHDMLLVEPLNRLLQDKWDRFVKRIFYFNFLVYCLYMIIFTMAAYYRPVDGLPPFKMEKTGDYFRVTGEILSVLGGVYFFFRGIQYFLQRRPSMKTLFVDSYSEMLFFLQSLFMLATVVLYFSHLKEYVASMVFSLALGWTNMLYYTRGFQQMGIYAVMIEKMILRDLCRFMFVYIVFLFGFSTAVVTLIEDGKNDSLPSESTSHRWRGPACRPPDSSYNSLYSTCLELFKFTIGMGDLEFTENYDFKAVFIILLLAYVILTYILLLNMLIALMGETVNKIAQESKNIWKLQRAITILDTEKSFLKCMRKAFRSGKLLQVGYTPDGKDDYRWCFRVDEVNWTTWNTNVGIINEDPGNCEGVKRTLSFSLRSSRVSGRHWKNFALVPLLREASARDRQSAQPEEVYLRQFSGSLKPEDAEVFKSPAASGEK
Description: VR1 protein is a heat-gated cation channel that exchanges about 10 calcium ions for every sodium ion resulting in neuronal membrane depolarization and elevated intracellular calcium ion levels. Therefore the functional activity of compounds at the VR1 receptor may be determined by measuring changes in intracellular calcium levels in 293 cells expressing capsaicin-insensitive VR1 receptor variants. A dual wavelength ratiometric dye, Fura2, was used as an indicator of relative levels of calcium ions in a 96 well format using a bench top scanning fluorometer with integrated fluidics and temperature control (Flex Station, Molecular Devices).
A dual wavelength ratiometric dye, Fura2, was used as an indicator of relative levels of [Ca2+] in a 96 well format using a bench top scanning fluorometer with integrated fluidics and temperature control (Flex Station, Molecular Devices).
HEK 293 cells expressing hVR1 were grown on PDL coated 96-well black-walled plates, in the presence of a DMEM medium containing 5% Penstrep, 5% Glutamax, 200 ug/mL Hygromycin, 5 μg/mL Blasticide and 10% heat inactivated FBS. Prior to assay, the cells were loaded with 5 μg/mL Fura2 in normal saline solution at 37° C. for 40 minutes. Cells were then washed with normal saline to remove the dye.
The assay consists of two stages; a pre-treatment phase followed by a treatment phase. In the pretreatment phase, 50 μl of a compound solution was added to the cells. Immediately following, 50 μl of the test compound in the presence of agonist (a saline solution plus 10 mM citric acid bufferd to pH 5.7 with HCl) was added. Fura2 was excited at […] to indicate relative calcium concentration. Changes in wavelength measurements were made throughout the course of the experiment in 4 second intervals over a period of 3 minutes. The fluorescence ratio from the excitations at […] was recorded for analysis. Responses were measured as peak fluorescence ratio after compound-agonist addition minus baseline fluorescence ratio prior to treatment and were calculated for each concentration tested using the SoftMaxPro software. Data was expressed as percentage inhibition calculated as follows: […]
A dose response curve was then determined, from which the IC50 of each compound was calculated.

[1] = Pharmacokinetic profile after intravenous and oral administration in rats; type: in vivo, rat; conditions: IV 1 mg/kg, oral 5 mg/kg; for bioavailability / Vd / Cmax / Tmax: male, Sprague-Dawley; for bioavailability / Vd: plasma; for bioavailability / Vd / Cls (L/hrKg) / T/2: rat; for Vd / Cmax / Tmax / Cls (L/hrKg) / T/2: route of this column not given; for Cmax / Tmax: rat plasma
Experimental: The pharmacokinetic profile of Compound 1 was evaluated following intravenous and oral administration in rats. Sprague-Dawley male rats obtained from Charles River, San Diego, Calif. were acclimated for 24 hours.
Compounds of this invention were formulated at a concentration of 0.5 mg/mL for IV administration at a 1 mg/kg dose and 1 mg/mL for oral administration at a 5 mg/kg dose. All animals were weighed before dosing. The body weight was used to calculate the actual dose for each animal. The intravenous dose was administered through the jugular vein catheter in less than 1 minute. The oral dose volume was 1.5 mL for all PO rats administered through oral lavage.
For IV dosing, blood samples were collected using a pre-heparinized syringe via the caproic artery catheter before dosing and at t=2, 5, 15, 30, 60, 120, 180, 360, and 480 minutes post dosing. For PO dosing, blood samples were collected using a pre-heparinized syringe via the caproic artery catheter before dosing and at t=5, 15, 30, 60, 120, 180, 360, and 480 minutes post dosing. 250 uL of blood was obtained at each time point from each animal. Equal volumes of 0.9% normal saline were replaced to prevent dehydration. The whole blood samples were maintained on ice until centrifugation. Blood samples were centrifuged at 14,000 rpm for 10 minutes at 4° C., and the upper plasma layer was transferred into a clean vial and store at −80° C.

| SMILES | % Inhibition @ 1 μM (hVR1) | further results |
| --- | --- | --- |
| FC(F)(F)c1ccc(Nc2ncnc3c2CCN(c2ncccc2Cl)C3)cc1 [Example 1, 7-(3-Chloropyridin-2-yl)-N-(4-(trifluoromethyl)phenyl)-5,6,7,8-tetrahydropyrido[3,4-d]pyrimidin-4-amine] | – | latency of paw withdrawal (reversal of thermal hyperalgesia) (Sprague-Dawley male rats): significantly increased latency of paw withdrawal |
| CC(C)(C)c1ccc(Nc2ncnc3c2CCN(Cc2ccccc2)C3)cc1 [Example 2, N-(4-tert-Butylphenyl)-7-benzyl-5,6,7,8-tetrahydropyrido[3,4-d]pyrimidin-4-amine] | IA (IA inactive.) | – |
| FC(F)(F)CCN1CCc2c(ncnc2Nc2ccc3c(c2)OCCO3)C1 [Example 7, (2,3-Dihydro-benzo[1,4]dioxin-6-yl)-[7-(3,3,3-trifluoro-propyl)-5,6,7,8-tetrahydro-pyrido[3,4-d]pyrimidin-4-yl]-amine hydrochloride] | IA (IA inactive.) | – |
| FC(F)(F)c1ccc(Nc2ncnc3c2CCN(c2ncccc2C(F)(F)F)C3)cc1 [Example 12, (4-Trifluoromethyl-phenyl)-[7-(3-trifluoromethyl-pyridin-2-yl)-5,6,7,8-tetrahydro-pyrido[3,4-d]pyrimidin-4-yl]-amine] | – | IC50 (hVR1): > 1 µM |
| FC(F)Oc1ccc(Nc2ncnc3c2CCN(c2ncccc2Cl)C3)cc1 [Example 15, 7-(3-Chloropyridin-2-yl)-N-(4-(difluoromethoxy)phenyl)-5,6,7,8-tetrahydropyrido[3,4-d]pyrimidin-4-amine] | IA (IA inactive.) | IC50 (hVR1): > 1 µM |
| CC(C)S(=O)(=O)c1cccnc1N1CCc2c(ncnc2Nc2ccc(C(F)(F)F)cc2)C1 [Example 16, N-(4-(Trifluoromethyl)phenyl)-5,6,7,8-tetrahydro-7-(3-(isopropylsulfonyl)pyridin-2-yl)pyrido[3,4-d]pyrimidin-4-amine] | IA (IA inactive.) | – |
| Clc1cccnc1N1CCc2c(ncnc2Nc2ccccc2)C1 [Example 18, 7-(3-Chloropyridin-2-yl)-5,6,7,8-tetrahydro-N-phenylpyrido[3,4-d]pyrimidin-4-amine] | ++ (“++” compound exhibited 26-50% inhibition of calcium ion influx induced by capsaicin stimulation.) | bioavailability [1]: 4.07%; Vd [1]: 18 L/kg; Cmax [1]: 44.6 ng/mL; Tmax [1]: 55.2 min; Cls (L/hrKg) [1]: 4.45 L/hrKg; T/2 [1]: 2.55 h |
| Fc1ccc(Nc2ncnc3c2CCN(c2ncccc2Cl)C3)cc1 [Example 19, 7-(3-Chloropyridin-2-yl)-N-(4-fluorophenyl)-5,6,7,8-tetrahydropyrido[3,4-d]pyrimidin-4-amine] | +++ (“+++” compound exhibited 51-75% inhibition of calcium ion influx induced by capsaicin stimulation.) | bioavailability [1]: 5.66%; Vd [1]: 12.2 L/kg; Cmax [1]: 24.5 ng/mL; Tmax [1]: 40.8 min; Cls (L/hrKg) [1]: 4.47 L/hrKg; T/2 [1]: 1.9 h |
| O=S(=O)(c1ccc(Nc2ncnc3c2CCN(c2ncccc2Cl)C3)cc1)C(F)(F)F [Example 22, 7-(3-Chloropyridin-2-yl)-5,6,7,8-tetrahydro-N-(4-(trifluoromethylsulfonyl)phenyl)pyrido[3,4-d]pyrimidin-4-amine] | IA (IA inactive.) | – |
| CS(=O)(=O)c1cccnc1N1CCc2c(ncnc2Nc2ccc(S(=O)(=O)C(F)(F)F)cc2)C1 [Example 23, 5,6,7,8-tetrahydro-7-(3-(methylsulfonyl)pyridin-2-yl)-N-(4-(trifluoromethylsulfonyl)phenyl)pyrido[3,4-d]pyrimidin-4-amine] | + (“+” compound exhibited 0-25% inhibition of calcium ion influx induced by capsaicin stimulation.) | – |
| CS(=O)(=O)c1nc2c(c(Nc3ccc(C(F)(F)F)cc3)n1)CCN(c1ncccc1Cl)C2 [Example 25, [7-(3-Chloro-pyridin-2-yl)-2-methanesulfonyl-5,6,7,8-tetrahydro-pyrido[3,4-d]pyrimidin-4-yl]-(4-trifluoromethyl-phenyl)-amine] | IA (IA inactive.) | – |
| c1ccc(CN2CCc3c(ncnc3Nc3ccc4c(c3)OCCO4)C2)cc1 [Example 30, (7-Benzyl-5,6,7,8-tetrahydro-pyrido[3,4-d]pyrimidin-4-yl)-(2,3-dihydro-benzo[1,4]dioxin-6-yl)-amine] | IA (IA inactive.) | – |
| COCc1nc2c(c(Nc3ccc(C(F)(F)F)cc3)n1)CCN(Cc1ccccc1)C2 [Example 31, 7-Benzyl-N-(4-(trifluoromethyl)phenyl)-5,6,7,8-tetrahydro-2-(methoxymethyl)pyrido[3,4-d]pyrimidin-4-amine] | IA (IA inactive.) | – |
| CN(C)CCNc1nc2c(c(Nc3ccc(C(F)(F)F)cc3)n1)CCN(c1ncccc1Cl)C2 [Example 32, 7-(3-Chloropyridin-2-yl)-N^2-(2-(dimethylamino)ethyl)-N^4-(4-(trifluoromethyl)phenyl)-5,6,7,8-tetrahydropyrido[3,4-d]pyrimidine-2,4-diamine] | IA (IA inactive.) | – |
| Cc1cccc(N2CCc3c(ncnc3Nc3ccc4c(c3)OCCO4)C2)c1 [Example 36, 5,6,7,8-Tetrahydro-N-(2,3-dihydrobenzo[b][1,4]dioxin-6-yl)-7-m-tolylpyrido[3,4-d]pyrimidin-4-amine] | – | IC50 (hVR1): 0.501 to 1 µM |
| c1ccc(CN2CCc3c(ncnc3Nc3cnc4ccccc4c3)C2)cc1 [Example 38, 7-Benzyl-5,6,7,8-tetrahydro-N-(quinolin-3-yl)pyrido[3,4-d]pyrimidin-4-amine] | IA (IA inactive.) | – |
| FC(F)(F)c1cccc(Nc2ncnc3c2CCN(c2ncccc2Cl)C3)c1 [Example 43, 7-(3-Chloropyridin-2-yl)-N-(3-(trifluoromethyl)phenyl)-5,6,7,8-tetrahydropyrido[3,4-d]pyrimidin-4-amine] | IA (IA inactive.) | – |
| FC(F)(F)c1ccc(Nc2ncnc3c2CCN(c2ccccc2)C3)cc1 [Example 44, N-(4-(Trifluoromethyl)phenyl)-5,6,7,8-tetrahydro-7-phenylpyrido[3,4-d]pyrimidin-4-amine] | IA (IA inactive.) | – |
| Cc1ccccc1N1CCc2c(ncnc2Nc2ccc(C(F)(F)F)cc2)C1 [Example 45, N-(4-(Trifluoromethyl)phenyl)-5,6,7,8-tetrahydro-7-o-tolylpyrido[3,4-d]pyrimidin-4-amine] | IA (IA inactive.) | – |
| Cc1ccc(N2CCc3c(ncnc3Nc3ccc(C(F)(F)F)cc3)C2)cc1 [Example 47, N-(4-(Trifluoromethyl)phenyl)-5,6,7,8-tetrahydro-7-p-tolylpyrido[3,4-d]pyrimidin-4-amine] | IA (IA inactive.) | – |
